The values that follow come from paper PMC3156940 (Biochimica et biophysica acta, 2011).

This assay deals with KirBac1.1 (His6-KirBac1.1) (Burkholderia pseudomallei, UniProt P83698). Particulars: 200 nM [3H]cholesterol, 0.1% CHAPS, pH 7.5, 37 °C, 2 h.

Molecules are shown by their SMILES.

KirBac1.1 (His6-KirBac1.1), sequence (P83698 1-333): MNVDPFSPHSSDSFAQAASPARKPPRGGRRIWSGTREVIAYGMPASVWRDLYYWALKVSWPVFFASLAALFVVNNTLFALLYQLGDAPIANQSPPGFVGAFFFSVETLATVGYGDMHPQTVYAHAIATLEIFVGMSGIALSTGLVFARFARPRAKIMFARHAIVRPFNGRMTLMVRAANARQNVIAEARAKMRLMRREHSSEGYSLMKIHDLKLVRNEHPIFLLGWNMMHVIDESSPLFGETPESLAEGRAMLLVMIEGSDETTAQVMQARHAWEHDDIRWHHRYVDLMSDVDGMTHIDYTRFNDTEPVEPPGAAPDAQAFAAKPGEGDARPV

As to `C[C@H](CCCC(C)(C)O)[C@H]1CC[C@H]2[C@@H]3CC=C4C[C@@H](O)CC[C@]4(C)[C@H]3CC[C@]12C` [25-hydroxycholesterol], the “competition with [3H]cholesterol” value is listed as 25-hydroxycholesterol was a significantly weaker competitor. Regarding `CC(C)CCC[C@@H](C)[C@H]1CC[C@H]2[C@@H]3CC=C4C[C@H](O)CC[C@]4(C)[C@H]3CC[C@]12C` [epicholesterol], the “competition with [3H]cholesterol” value is listed as “epicholesterol efficiently competed with cholesterol for the channel binding”.
